Test results as given in patent US7435731B2, “Substituted pyrazolo[3,4-d]pyrimadines and methods of using the same” (Roche Palo Alto LLC, priority 2004, dated 2008).

Columns and labels:
p38 MAP kinase = biological target: T1, p38 MAP kinase (Homo sapiens, UniProt Q16539); assay: p38 (MAP) kinase in vitro assay, transfer of γ-33P-phosphate from ATP to Myelin Basic Protein; assay type: biochemical; conditions: phosphorylated recombinant p38 MAP kinase, MBP substrate, γ-33P-ATP, 30° C.
T1 construct: made in house; host or cells: E. coli (co-expressed with SEK-1 and MEKK)
T1 sequence (Q16539 whole entry): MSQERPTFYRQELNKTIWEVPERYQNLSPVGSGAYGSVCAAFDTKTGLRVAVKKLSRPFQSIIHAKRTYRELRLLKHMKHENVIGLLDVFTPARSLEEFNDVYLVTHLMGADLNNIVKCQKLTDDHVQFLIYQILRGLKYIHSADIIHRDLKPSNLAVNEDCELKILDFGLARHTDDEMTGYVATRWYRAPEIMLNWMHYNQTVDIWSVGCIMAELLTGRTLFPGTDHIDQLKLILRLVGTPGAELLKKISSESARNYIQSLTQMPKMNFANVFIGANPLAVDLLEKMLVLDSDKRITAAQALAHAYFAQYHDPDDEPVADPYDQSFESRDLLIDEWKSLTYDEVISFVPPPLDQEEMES
Description: This example illustrates a p38 (MAP) kinase in vitro assay useful for evaluating the compounds of the invention.
The p38 MAP kinase inhibitory activity of compounds of this invention in vitro was determined by measuring the transfer of the γ-phosphate from γ-^33P-ATP by p-38 kinase to Myelin Basic Protein (MBP), using a minor modification of the method described in Ahn, et al., J. Biol. Chem. 266:4220-4227 (1991).
The phosphorylated form of the recombinant p38 MAP kinase was co-expressed with SEK-1 and MEKK in E. Coli (see, Khokhlatchev, et al., J. Biol. Chem. 272:11057-11062 (1997)) and then purified by affinity chromatography using a Nickel column.
The phosphorylated p38 MAP kinase was diluted in kinase buffer (20 mM 3-(N-morpholino)propanesulfonic acid, pH 7.2, 25 mM β-glycerol phosphate, 5 mM ethylene glycol-bis(beta-aminoethyl ether)-N,N,N′,N′-tetraacetic acid, 1 mM sodium ortho-vanadate, 1 mM dithiothreitol, 40 mM magnesium chloride). Test compound dissolved in DMSO or only DMSO (control) was added and the samples were incubated for 10 min at 30° C. The kinase reaction was initiated by the addition of a substrate cocktail containing MBP and γ-^33P-ATP. […] The phosphorylated MBP was then separated from the residual γ-^33P-ATP using a phosphocellulose membrane (Millipore, Bedford, Mass.) and quantitated using a scintillation counter (Packard, Meriden, Conn.).

| SMILES | melting point [°C] | IC50 (p38 MAP kinase) [nM] |
| --- | --- | --- |
| C[C@H](O)CNc1nc(Oc2ccc(F)cc2F)cc2[nH]nc(-c3ccccc3Cl)c12 [Example 9, (S)-1-[3-(2-Chloro-phenyl)-6-(2,4-difluoro-phenoxy)-1H-pyrazolo[4,3-c]pyridin-4-ylamino]-propan-2-ol] | 171.2 to 172 | – |
| C[C@H](O)CNc1nc(Oc2ccc(F)cc2F)nc2[nH]nc(-c3ccccc3Cl)c12 [Example 1, (S)-1-[3-(2-chlorophenyl)-6-(2,4-difluorophenoxy)-1H-pyrazolo[3,4-d]pyrimidin-4-ylamino]propan-2-ol] | 254.6 to 258.2 | – |
| OC[C@H](O)COc1nc(Oc2ccc(F)cc2F)nc2[nH]nc(-c3ccccc3Cl)c12 [Example 5, (S)-3-[3-(2-Chloro-phenyl)-6-(2,4-difluoro-phenoxy)-1H-pyrazolo[3,4-d]pyrimidin-4-yloxy]-propane-1,2-diol] | 179.2 to 181.3 | – |
| OC[C@@H](O)CNc1nc(Oc2ccc(F)cc2F)nc2[nH]nc(-c3ccccc3Cl)c12 [3-[3-(2-Chloro-phenyl)-6-(2,4-difluoro-phenoxy)-1H-pyrazolo[3,4-d]pyrimidin-4-ylamino]-propane-1,2-diol] | – | 4 |
| C[C@H](O)CNc1cc(Oc2ccc(F)cc2F)nc2[nH]nc(-c3ccccc3Cl)c12 [Example 10, (S)-1-[3-(2-Chloro-phenyl)-6-(2,4-difluoro-phenoxy)-1H-pyrazolo[3,4-b]pyridin-4-ylamino]-propan-2-ol] | 237.9 to 238.5 | – |
